Source: US11618767B2, “Carboxy substituted glucocorticoid receptor agonists” (Eli Lilly and Company, priority 2021, dated 2023)
pIC50: −log10 of the molar value.

biological target: T1, GR-LBD (Homo sapiens, UniProt P04150); assay: hGR CoActivator Recruitment Assay (LanthaScreen TR-Fret GR Coactivator Assay); assay type: biochemical; conditions: TR-FRET emission ratio 520/490; 10-point serial dilution, top concentration 200 nM; Fluorescein-SRC1-4 coactivator peptide; read-out: relative IC50
T1 construct: purchased Life Technologies A15899
T1 sequence (P04150 524-758 limits assumed): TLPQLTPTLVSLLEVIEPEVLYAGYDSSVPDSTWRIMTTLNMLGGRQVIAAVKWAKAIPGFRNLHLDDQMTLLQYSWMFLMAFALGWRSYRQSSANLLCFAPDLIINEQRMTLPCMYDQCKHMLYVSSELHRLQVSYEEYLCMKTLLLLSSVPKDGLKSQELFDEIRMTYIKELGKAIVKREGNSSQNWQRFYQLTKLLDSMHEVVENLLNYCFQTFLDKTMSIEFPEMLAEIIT
Method: hGR CoActivator Recruitment Assay The activity of glucocorticoid compounds was measured using the LanthaScreen TR-Fret GR Coactivator Assay from Life Technologies (A15899). The compounds were acoustically transferred to an assay plate in a 3-fold 10-point serial dilution with a top concentration of 200 nM. Ten microliters of a 2× solution of GR-LBD was added to the compound plate and incubated for 10 min. Then ten microliters of a 2× solution of Fluoresein-SRC1-4 and Tb labelled anti-GST antibody was added to the plate. The plate was incubated in the dark for two hours and then read on an Envision plate reader, with excitation at 340 nm and emission at 520 nm (Fluorescein) and 490 nm (Terbium). The emission ratio of 520/490 was analyzed in Genedata. To obtain percent activity, the data was compared to a negative control of DMSO and positive control of […] dexamethasone.

Row | Compound | pIC50
1 | C[C@]12C=CC(=O)C=C1CC[C@@H]1[C@@H]2[C@@H](O)C[C@@]2(C)[C@H]1C[C@H]1O[C@@H](c3ccc(Oc4ccc(C(=O)O)cc4)cc3)O[C@]12C(=O)CO [Example 5] | > 6.70
2 | C[C@]12C=CC(=O)C=C1CC[C@@H]1[C@@H]2[C@@H](O)C[C@@]2(C)[C@H]1C[C@H]1O[C@H](c3ccc(Cc4ccc(C(=O)O)cc4)cc3F)O[C@]12C(=O)CO (single isomer, unassigned) [Example 2] | 8.35
3 | Cc1ccc(OCc2cccc(C(=O)O)c2)c(F)c1[C@@H]1O[C@@H]2C[C@H]3[C@@H]4CCC5=CC(=O)C=C[C@]5(C)[C@H]4[C@@H](O)C[C@]3(C)[C@]2(C(=O)CO)O1 [Example 3, 3-((2-Fluoro-3-((6aR,6bS,7S,8aS,8bS,10R,11aR,12aS,12bS)-7-hydroxy-8b-(2-hydroxyacetyl)-6a, 8a-dimethyl-4-oxo-2,4,6a,6b,7,8,8a,8b,11a,12,12a,12b-dodecahydro-1H-naphtho[2′,1′:4,5]indeno[1,2-d][1,3]dioxol-10-yl)-4-methylphenoxy)methyl)benzoic Acid] | > 6.70
4 | Cc1ccc(OCc2ccccc2C(=O)O)c(F)c1[C@H]1O[C@@H]2C[C@H]3[C@@H]4CCC5=CC(=O)C=C[C@]5(C)[C@H]4[C@@H](O)C[C@]3(C)[C@]2(C(=O)CO)O1 [Example 15] | > 6.70
5 | COc1ccc(OCc2ccccc2C(=O)O)c(F)c1[C@H]1O[C@@H]2C[C@H]3[C@@H]4CCC5=CC(=O)C=C[C@]5(C)[C@H]4[C@@H](O)C[C@]3(C)[C@]2(C(=O)CO)O1 [Example 14] | > 6.70
6 | COc1ccc(OCc2ccccc2C(=O)O)c(F)c1[C@@H]1O[C@@H]2C[C@H]3[C@@H]4CCC5=CC(=O)C=C[C@]5(C)[C@H]4[C@@H](O)C[C@]3(C)[C@]2(C(=O)CO)O1 [Example 13] | < 6.70
7 | C[C@]12C=CC(=O)C=C1CC[C@@H]1[C@@H]2[C@@H](O)C[C@@]2(C)[C@H]1C[C@H]1O[C@@H](c3ccc(Cc4cccc(C(=O)O)c4)cc3F)O[C@]12C(=O)CO [Example 9] | > 6.70
8 | C[C@]12C=CC(=O)C=C1CC[C@@H]1[C@@H]2[C@@H](O)C[C@@]2(C)[C@H]1C[C@H]1O[C@H](c3ccc(Oc4cccc(C(=O)O)c4)cc3)O[C@]12C(=O)CO [Example 8] | > 6.70
9 | COc1ccc(OCc2cccc(C(=O)O)c2)c(F)c1[C@@H]1O[C@@H]2C[C@H]3[C@@H]4CCC5=CC(=O)C=C[C@]5(C)[C@H]4[C@@H](O)C[C@]3(C)[C@]2(C(=O)CO)O1 [Example 11] | > 6.70
10 | Cc1ccc(OCc2cccc(C(=O)O)c2)c(F)c1[C@H]1O[C@@H]2C[C@H]3[C@@H]4CCC5=CC(=O)C=C[C@]5(C)[C@H]4[C@@H](O)C[C@]3(C)[C@]2(C(=O)CO)O1 [Example 4, 3-((2-Fluoro-3-((6aR,6bS,7S,8aS,8bS,10 S,11aR,12a5,12bS)-7-hydroxy-8b-(2-hydroxyacetyl)-6a, 8a-dimethyl-4-oxo-2,4,6a,6b,7,8,8a, 8b,11a,12,12a,12b-dodecahydro-1H-naphtho[2′,1′:4,5]indeno[1,2-d][1,3]dioxol-10-yl)-4-methylphenoxy)methyl)benzoic Acid] | > 6.70
11 | C[C@]12C=CC(=O)C=C1CC[C@@H]1[C@@H]2[C@@H](O)C[C@@]2(C)[C@H]1C[C@H]1O[C@H](c3ccc(Oc4ccc(C(=O)O)cc4)cc3)O[C@]12C(=O)CO [Example 6] | > 6.70
12 | C[C@]12C=CC(=O)C=C1CC[C@@H]1[C@@H]2[C@@H](O)C[C@@]2(C)[C@H]1C[C@H]1O[C@H](c3ccc(Cc4cccc(C(=O)O)c4)cc3F)O[C@]12C(=O)CO [Example 10] | < 6.70
13 | C[C@]12C=CC(=O)C=C1CC[C@@H]1[C@@H]2[C@@H](O)C[C@@]2(C)[C@H]1C[C@H]1O[C@@H](c3ccc(Cc4ccc(C(=O)O)cc4)cc3F)O[C@]12C(=O)CO (single isomer, unassigned) [Example 1] | 8.67
14 | C[C@]12C=CC(=O)C=C1CC[C@@H]1[C@@H]2[C@@H](O)C[C@@]2(C)[C@H]1C[C@H]1O[C@@H](c3ccc(Oc4cccc(C(=O)O)c4)cc3)O[C@]12C(=O)CO [Example 7] | > 6.70
15 | COc1ccc(OCc2cccc(C(=O)O)c2)c(F)c1[C@H]1O[C@@H]2C[C@H]3[C@@H]4CCC5=CC(=O)C=C[C@]5(C)[C@H]4[C@@H](O)C[C@]3(C)[C@]2(C(=O)CO)O1 [Example 12] | > 6.70
